Test results reported in article PMC5516028, “Molecular tools for GABAA receptors: High affinity ligands for β1-containing subtypes” (Scientific Reports, 2017).

Tests used:
Type in all cases: cell-based
α5β3γ2 GABAA receptors = target: T1, α5β3γ2 GABAA receptors (Rattus norvegicus, UniProt P19969+P63079); assay: Two electrode voltage clamp in Xenopus laevis oocytes, α5β3γ2
T1 construct: expressed in transfected cells; host or cells: Xenopus laevis oocytes, mRNA injected
Description: (§1) cDNA’s of rat GABAA receptor subunits α1, α4, β1, β2, β3 and γ2S were cloned as described. cDNAs of the rat subunits α2, α3 and α5 were gifts from P. Malherbe, that of α6 and γ1 were gifts of P. Seeburg and that of δ was a gift of C. Czajkowski. The mutants were constructed using the Q5 Site-Directed Mutagenesis Kit (New England Biolabs) following manufacturer’s instruction. We used the wild-type rat β3-pCI vector as template and the primers […] and […] resulting in a substitution of amino acid N41 (AAC) to R (AGG). We used the wild-type rat β1-pCI vector as template and the primers […] and […] resulting in a substitution of amino acid R41 (CGG) to N (AAC). The mutated subunits were confirmed by sequencing.
(§2) In vitro transcription of mRNA was based on the cDNA expression vectors encoding for rat GABAA receptor subunits α1–6, β1-3, γ1,2, δ and the two β mutants (β1R41N and β3N41R)[40]. After linearizing the cDNA vectors with appropriate restriction endonucleases, the cDNA was purified and concentrated with the DNA Clean and Contentrator ^TM Kit (Zymoresearch, Catalog No. D4005). Capped transcripts of the purified cDNA were produced using the mMESSAGE mMACHINE® T7 transcription kit (Ambion, TX, USA) and polyadenylated using the Ambion PolyA tailing kit (Ambion). After transcription and polyadenylation the RNA was purified with the MEGAclear ^TM Kit (Ambion, Catalog No. AM1908). The final RNA concentration was measured on NanoDrop® ND-1000 and finally diluted and stored in diethylpyrocarbonate-treated water at −80 °C. For the microinjection, the RNA of αβ receptor combinations was mixed at 1:1 ratio (which leads to αβ receptors that consist of predominantly 3 beta and 2 alpha subunits[27]), for αkβlγm (k = 1–3, l = 1, 3, m = 1, 2) receptors at 1:1:5 ratio, for αkβ3γ2 (k = 4–6) and αkβlδ (k = 1, 4 and 6, l = 1, 3) receptor combinations at 3:1:5 ratio.
(§3) Mature female Xenopus laevis (Nasco, WI) were anesthetized in a bath of ice-cold 0.17% Tricain (Ethyl-m-aminobenzoate, Sigma, MO) before decapitation in full accordance with all rules of the Austrian animal protection law (see http://www.ris.bka.gv.at/Dokumente/BgblAuth/BGBLA_2012_I_114/BGBLA_2012_I_114.pdf) and the Austrian animal experiment by-laws (see https://www.ris.bka.gv.at/Dokumente/BgblAuth/BGBLA_2012_II_522/BGBLA_2012_II_522.pdf) which implement the European Directive 2010/63/EU (see http://eur-lex.europa.eu/LexUriServ/LexUriServ.do?uri=OJ:L:2010:276:0033:0079:en:PDF) into the Austrian law (all information accessed on July 27, 2016). The frog’s ovaries were transferred to ND96 medium (96 mM NaCl, 2 mM KCl, 1 mM MgCl2, 5 mM HEPES; pH 7.5). Stage 5–6 oocytes with the follicle cell layer around them were roughly dissected with forceps into packages of 10–15 cells and washed in Ca^2+-free ND96 medium. Cells were then digested with collagenase (type IA, Sigma, NO, 1 mg/mL ND96) at 18 °C shaking at 30 rpm for 30–60 minutes and gently defolliculated with the aid of a glass pipette with appropriate tip diameter and a platinum loop. Defolliculated cells were stored at 18 °C for at least 6 hours in ND96 solution containing penicillin G (10000 IU/100 mL) and streptomycin (10 mg/100 mL) in order to preselect and exclude damaged cells from further treatment. Healthy defolliculated oocytes were injected with an aqueous solution of mRNA. A total of 4.5 ng of mRNA per oocyte was injected with a Nanoject II (Drummond). After injection of mRNA, oocytes were incubated at 18 °C (ND96 + antibiotic) for 2–3 days for αβ receptors and for 3–4 days for αβγ or αβδ receptors before recording. When cells were measured at later time points, oocytes were stored at +4 °C instead of 18 °C.
(§4) For electrophysiological recordings, oocytes were placed on a nylon-grid in a bath of Ca^2+-containing NDE solution medium [96 mM NaCl, 5 mM HEPES-NaOH (pH 7.5), 2 mM KCl, 1 mM MgCl2, 1.8 mM CaCl2].

α2β3 GABAA receptors = target: T2, α2β3 GABAA receptors (Rattus norvegicus, UniProt P23576+P63079); assay: Two electrode voltage clamp in Xenopus laevis oocytes, α2β3; details: α2β3
T2 construct: expressed in transfected cells; host or cells: Xenopus laevis oocytes, mRNA injected
Description: as §1, §2, §3, §4

α3β3 GABAA receptors = target: T3, α3β3 GABAA receptors (Rattus norvegicus, UniProt P20236+P63079); assay: Two electrode voltage clamp in Xenopus laevis oocytes, α3β3
T3 construct: expressed in transfected cells; host or cells: Xenopus laevis oocytes, mRNA injected
Description: as §1, §2, §3, §4

α6β3γ2 GABAA receptors = target: T4, α6β3γ2 GABAA receptors (Rattus norvegicus, UniProt P30191+P63079); assay: Two electrode voltage clamp in Xenopus laevis oocytes, α6β3γ2
T4 construct: expressed in transfected cells; host or cells: Xenopus laevis oocytes, mRNA injected
Description: as §1, §2, §3, §4

[1] = read-out: efficacy, % of control current (GABA EC3-5 = 100%), 1 nM
[2] = read-out: efficacy, % of control current (GABA EC3-5 = 100%), 10 nM
[3] = read-out: efficacy, % of control current (GABA EC3-5 = 100%), 1 µM

T3 sequence (P20236 29-493): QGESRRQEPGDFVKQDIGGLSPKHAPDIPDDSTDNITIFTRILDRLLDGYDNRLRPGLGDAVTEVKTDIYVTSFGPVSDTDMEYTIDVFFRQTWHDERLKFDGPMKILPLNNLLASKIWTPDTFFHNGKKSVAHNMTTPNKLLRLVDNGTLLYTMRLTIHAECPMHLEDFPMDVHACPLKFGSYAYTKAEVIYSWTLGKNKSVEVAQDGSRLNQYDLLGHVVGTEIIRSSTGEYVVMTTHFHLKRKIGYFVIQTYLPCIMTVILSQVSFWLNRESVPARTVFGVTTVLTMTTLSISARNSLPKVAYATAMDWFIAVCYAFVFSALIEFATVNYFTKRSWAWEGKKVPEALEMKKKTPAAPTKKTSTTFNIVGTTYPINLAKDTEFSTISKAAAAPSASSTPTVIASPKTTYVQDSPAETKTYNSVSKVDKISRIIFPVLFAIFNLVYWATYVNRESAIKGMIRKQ
T3 sequence (P63079 26-473): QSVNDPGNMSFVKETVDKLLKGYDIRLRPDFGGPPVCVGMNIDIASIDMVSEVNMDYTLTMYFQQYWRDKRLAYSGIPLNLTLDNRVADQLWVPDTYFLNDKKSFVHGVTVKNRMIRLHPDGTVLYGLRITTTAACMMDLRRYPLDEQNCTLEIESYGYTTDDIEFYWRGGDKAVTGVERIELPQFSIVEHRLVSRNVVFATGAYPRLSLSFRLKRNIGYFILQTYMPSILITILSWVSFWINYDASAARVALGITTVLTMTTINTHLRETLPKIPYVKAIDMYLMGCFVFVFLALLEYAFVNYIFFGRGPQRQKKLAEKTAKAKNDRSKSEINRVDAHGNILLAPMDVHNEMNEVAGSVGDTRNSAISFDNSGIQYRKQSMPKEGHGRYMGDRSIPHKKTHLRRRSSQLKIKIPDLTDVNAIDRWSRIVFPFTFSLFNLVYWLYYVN
T1 sequence (P19969 32-464 limits assumed): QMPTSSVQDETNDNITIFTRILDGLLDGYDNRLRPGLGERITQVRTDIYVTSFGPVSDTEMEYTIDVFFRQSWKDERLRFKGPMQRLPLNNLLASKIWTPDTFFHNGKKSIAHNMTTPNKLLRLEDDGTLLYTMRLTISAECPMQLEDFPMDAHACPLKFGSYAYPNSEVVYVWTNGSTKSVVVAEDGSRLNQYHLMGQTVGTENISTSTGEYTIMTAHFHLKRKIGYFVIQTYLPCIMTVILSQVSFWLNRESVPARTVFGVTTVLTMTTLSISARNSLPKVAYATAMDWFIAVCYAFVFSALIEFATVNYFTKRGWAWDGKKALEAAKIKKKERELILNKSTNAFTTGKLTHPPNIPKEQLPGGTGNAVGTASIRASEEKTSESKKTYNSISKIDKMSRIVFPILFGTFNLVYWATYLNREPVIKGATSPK
T1 sequence (P63079 26-473): as the sequence (P63079 26-473) above
T1 sequence (P18508 39-466 partner): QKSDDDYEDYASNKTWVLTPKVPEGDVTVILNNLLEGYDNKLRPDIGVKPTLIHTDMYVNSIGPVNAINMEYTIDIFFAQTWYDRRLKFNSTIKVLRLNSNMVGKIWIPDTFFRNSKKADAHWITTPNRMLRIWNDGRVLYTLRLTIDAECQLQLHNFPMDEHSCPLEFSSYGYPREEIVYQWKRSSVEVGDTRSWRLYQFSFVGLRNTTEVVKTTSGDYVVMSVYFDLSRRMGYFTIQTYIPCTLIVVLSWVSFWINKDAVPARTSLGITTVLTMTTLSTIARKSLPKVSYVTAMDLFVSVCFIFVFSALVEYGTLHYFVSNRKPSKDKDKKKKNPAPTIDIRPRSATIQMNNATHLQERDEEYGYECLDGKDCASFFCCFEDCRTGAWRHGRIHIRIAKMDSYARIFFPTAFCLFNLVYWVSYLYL
T2 sequence (P23576 29-451): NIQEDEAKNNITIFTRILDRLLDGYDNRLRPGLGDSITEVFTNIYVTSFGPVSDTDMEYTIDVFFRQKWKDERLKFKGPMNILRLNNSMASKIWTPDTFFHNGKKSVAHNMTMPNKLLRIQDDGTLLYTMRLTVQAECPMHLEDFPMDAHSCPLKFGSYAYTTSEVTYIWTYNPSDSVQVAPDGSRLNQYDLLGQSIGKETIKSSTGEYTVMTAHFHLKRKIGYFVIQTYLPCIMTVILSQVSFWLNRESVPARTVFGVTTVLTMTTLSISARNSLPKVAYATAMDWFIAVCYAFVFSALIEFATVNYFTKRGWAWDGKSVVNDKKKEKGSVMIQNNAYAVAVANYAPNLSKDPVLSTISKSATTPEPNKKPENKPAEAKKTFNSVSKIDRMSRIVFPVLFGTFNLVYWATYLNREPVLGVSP
T2 sequence (P63079 26-473): as the sequence (P63079 26-473) above
T4 sequence (P30191 20-453): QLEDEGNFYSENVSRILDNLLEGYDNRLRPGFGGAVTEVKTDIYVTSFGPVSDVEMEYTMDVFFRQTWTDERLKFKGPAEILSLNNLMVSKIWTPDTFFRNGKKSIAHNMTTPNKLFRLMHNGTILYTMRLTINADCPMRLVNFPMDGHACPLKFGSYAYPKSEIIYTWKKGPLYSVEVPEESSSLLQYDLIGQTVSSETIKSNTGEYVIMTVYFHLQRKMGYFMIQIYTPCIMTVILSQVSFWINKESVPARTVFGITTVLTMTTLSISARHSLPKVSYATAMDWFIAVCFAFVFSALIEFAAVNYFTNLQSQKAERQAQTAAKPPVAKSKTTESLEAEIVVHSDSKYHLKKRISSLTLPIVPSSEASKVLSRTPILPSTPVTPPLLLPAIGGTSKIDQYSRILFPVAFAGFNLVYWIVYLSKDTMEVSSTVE
T4 sequence (P63079 26-473): as the sequence (P63079 26-473) above
T4 sequence (P18508 39-466 partner): as the sequence (P18508 39-466 partner) above

activity at 0.001 µM (α5β3γ2 GABAA receptors; read-out: efficacy, % of control current (GABA EC3-5 = 100%), α5β3γ2, 1 nM): 93.3 ± 5.7%
activity at 0.01 µM (α5β3γ2 GABAA receptors; read-out: efficacy, % of control current (GABA EC3-5 = 100%), α5β3γ2, 10 nM): 95.1 ± 6.9%
activity at 0.1 µM (α5β3γ2 GABAA receptors; read-out: efficacy, % of control current (GABA EC3-5 = 100%), α5β3γ2, 100 nM): 97.7 ± 11.5%
activity at 0.3 µM (α5β3γ2 GABAA receptors; read-out: efficacy, % of control current (GABA EC3-5 = 100%), α5β3γ2, 300 nM): 103 ± 14.9%
activity at 1 µM (α5β3γ2 GABAA receptors; read-out: efficacy, % of control current (GABA EC3-5 = 100%), α5β3γ2, 1 µM): 123 ± 16.5%
activity at 10 µM (α5β3γ2 GABAA receptors; read-out: efficacy, % of control current (GABA EC3-5 = 100%), α5β3γ2, 10 µM): 220 ± 31.1%
activity at 30 µM (α5β3γ2 GABAA receptors; read-out: efficacy, % of control current (GABA EC3-5 = 100%), α5β3γ2, 30 µM): 266 ± 41%
Emax (α5β3γ2 GABAA receptors; α5-containing subtype (α5β3γ2), read-out: maximum efficacy): ~200%
activity at 0.001 µM (α2β3 GABAA receptors; [1]): 100%
activity at 0.01 µM (α2β3 GABAA receptors; [2]): 100%
activity at 0.3 µM (α2β3 GABAA receptors; read-out: efficacy, % of control current (GABA EC3-5 = 100%), 300 nM): 123 ± 4.9%
activity at 1 µM (α2β3 GABAA receptors; [3]): 127 ± 9.8%
activity at 3 µM (α2β3 GABAA receptors; read-out: efficacy, % of control current (GABA EC3-5 = 100%), 3 µM): 254 ± 4%
EC50 (α2β3 GABAA receptors; log of EC50, sign as printed, read-out: LogEC50 (converted)): 15.8 µM
EC50 (α3β3 GABAA receptors): 2.1 µM
activity at 0.001 µM (α3β3 GABAA receptors; read-out: efficacy, % of control current (GABA EC3-5 = 100%), α3β3, 1 nM): 101.2 ± 0.8%
activity at 0.01 µM (α3β3 GABAA receptors; read-out: efficacy, % of control current (GABA EC3-5 = 100%), α3β3, 10 nM): 102 ± 1.2%
activity at 0.1 µM (α3β3 GABAA receptors; read-out: efficacy, % of control current (GABA EC3-5 = 100%), α3β3, 100 nM): 106 ± 1.3%
activity at 3 µM (α3β3 GABAA receptors; read-out: efficacy, % of control current (GABA EC3-5 = 100%), α3β3, 3 µM): 226 ± 10.7%
activity at 10 µM (α3β3 GABAA receptors; read-out: efficacy, % of control current (GABA EC3-5 = 100%), α3β3, 10 µM): 285 ± 7%
activity at 30 µM (α3β3 GABAA receptors; read-out: efficacy, % of control current (GABA EC3-5 = 100%), α3β3, 30 µM): 288 ± 8.7%
EC50 (α6β3γ2 GABAA receptors; co-applied with GABA EC3-5): > 5 µM
activity at 0.001 µM (α6β3γ2 GABAA receptors; [1]): 106 ± 6.6%
activity at 0.01 µM (α6β3γ2 GABAA receptors; [2]): 114 ± 8.8%
activity at 0.1 µM (α6β3γ2 GABAA receptors; read-out: efficacy, % of control current (GABA EC3-5 = 100%), 100 nM): 152 ± 12%
activity at 1 µM (α6β3γ2 GABAA receptors; [3]): 297 ± 16.2%
activity at 10 µM (α6β3γ2 GABAA receptors; read-out: efficacy, % of control current (GABA EC3-5 = 100%), 10 µM): > 1000%
Structure (SMILES): Cc1ccc(-n2nc3c4cc(Cl)ccc4[nH]cc-3c2=O)cc1 [Compound 2, 8-Chloro-2-(4-methylphenyl)-2H-pyrazolo[4,3-c]quinolin-3(5H)-one]
